One data set can be described thus: in vitro. Particulars: human, HepG2-2.2.15 cells.
The test system of the next data set is MRSA. Particulars: 5 micrograms per ml.
Data set [1] is described as follows: Cytotoxicity in CEM-SS cells (MTS cell viability). As to conditions: human.
A further data set relates to Pseudomonas aeruginosa. The data set is classed as cell-based. Particulars: 5 micrograms per ml.
For the next data set, the system named is Streptococcus pneumoniae. The data set is classed as cell-based. Particulars: 5 micrograms per ml.
Data set [2] can be described thus: Cytotoxicity in MRC-5 cells (CellTiter 96). Particulars: human.
The next data set deals with HIV-1IIIB. Description: HIV-1 antiviral assay (CPE reduction, MTS). The data set is classed as cell-based. Particulars: peptide 10 micrograms per ml, 6 days post-infection.

By viability is commonly meant a read-out of living cells in per cent, often relative to untreated cells. A word on the % inhibition: it is the drop in the measured response relative to a control, in per cent.

No end group written: not given here.

Protocol for in vitro: HepG2-2.2.15 cells were plated in 96-well microtiter plates. After 16-24 hours the confluent monolayer of HepG2-2.2.15 cells was washed and the medium was replaced with complete medium containing test peptide—10 micrograms per ml—in duplicate. […] Three days later the culture medium was replaced with fresh medium containing the peptide. […] A novel dye uptake assay was then employed to measure cell viability, which is used to calculate toxicity (% cell control).

In turn, SFLLRNPNDKYEPF-OH [TRAP-14] came in with a viability at 144 h, 10 micrograms per ml in the data set “in vitro” of 84.5%. In addition, the “% inhibition” value with MRSA, in the data set on Pseudomonas aeruginosa and with Streptococcus pneumoniae was 0.0% each time. This molecule came in with a viability at 10 micrograms per ml in data set [1] of 100%. The same molecule returned a viability at 144 h in data set [2] of 100%.

Turning to `Cc1cn([C@H]2C[C@H](N=[N+]=[N-])[C@@H](CO)O2)c(=O)[nH]c1=O` [AZT], the “% CPE reduction in HIV-1 infected CEM-SS cells” value with HIV-1IIIB is given as 99%.

(Values after patent US20100210559A1, “TRAP-14 AS A THERAPEUTIC AGENT” (priority 2007, published 2010).)
